Test results taken from patent US12338221B2, “Process for preparation of sulfentrazone with tank-mix compatibility” (UPL LTD, priority 2021, dated 2025).

Experiment: Tank mix compatibility test with other pesticide active compound
Type: physicochemical
Conditions: FIG. 2 and FIG. 3
Experimental: Samples prepared according to Example 6 and Example 7 were tested for compatibility with clomazone EC formulation (UPSTAGE®). The tank mix compatibility was checked as per the dosages mentioned below: [table] Method: Total 250 ml of spray dilution solution was prepared using above mentioned composition wherein 7 ml of each sample 1 and sample 2 were mixed with 10 ml of UPSTAGE® and mixture was diluted with water.

Row | Compound | Physical incompatibilities when mixed with a clomazone EC formulation
1 | Cc1nn(-c2cc(NS(C)(=O)=O)c(Cl)cc2Cl)c(=O)n1C(F)F [conventionally prepared sulfentrazone, N[2,4-dichloro-5-[4-(difluoromethyl)-4,5-dihydro-3-methyl-5-oxo-1H-1,2,4-triazol-1-yl]phenyl]methanesulfonamide] | moderate to severe physical incompatibilities
2 | Cc1nn(-c2cc(NS(C)(=O)=O)c(Cl)cc2Cl)c(=O)n1C(F)F [sulfentrazone prepared in accordance with the present disclo] [N[2,4-dichloro-5-[4-(difluoromethyl)-4,5-dihydro-3-methyl-5-oxo-1H-1,2,4-triazol-1-yl]phenyl]methanesulfonamide] | did not result in any physical incompatibilities
